Patent US20260062422A1 (Halda Therapeutics OpCo, Inc., priority 2022, published 2026)
pEC50: −log10 of the molar value.

What was measured:
Assay type in all cases: cell-based
[1] = Cellular growth inhibition, T-Rex 293 SC cells with doxycycline (progesterone receptor isoform B induced), Example 47; conditions: progesterone receptor isoform B induced with 10 ng/mL doxycycline, 72 hours, CellTiter-Glo 2.0, Table 14 (Example 47)
Experimental: (§1) The following types of cells were prepared for this experiment: (i) a T-Rex 293 cell line having increased expression of progesterone receptor isoform B protein due to exposure to doxycycline and (ii) a T-Rex 293 cell line lacking increased expression of progesterone receptor isoform B protein. Ability of the test compounds to inhibit proliferation of the foregoing cell types was evaluated according to the procedures set forth below.
(§2) The doxycycline-inducible progesterone receptor isoform B protein expressing cell line was established using the following protocol: T-Rex 293 cells were purchased from Invitrogen (Cat #R71007) and transfected using Lipofectamine 2000 with the wild-type progesterone receptor B protein sequence cloned into the pcDNA4/TO vector. Transfected cells were selected using 400 μg/mL Zeocin (Invitrogen Cat #R25001). Following selection, single clones were raised and maintained in Dulbecco's Modified Eagle Medium (DMEM) supplemented with 10% w/w Tetracycline-free fetal bovine serum (FBS) and 250 μg/mL Zeocin. Clones were analyzed for expression of progesterone receptor isoform B protein in the presence and absence of 10 ng/mL doxycycline (Sigma Cat #D9891), and a single doxycycline-inducible clone (hereinafter “SC”) was selected for use in downstream assays.
(§3) The SC cells were seeded on poly-D-lysine coated, black clear-bottom 384-well plates at 2500/well, in 25 μL Phenol Red Free Dulbecco's Modified Eagle Medium (DMEM) supplemented with 10% w/w charcoal-dextran treated fetal bovine serum (FBS) and 1% w/w pen-strep, with or without 10 ng/mL doxycycline. Pen-Strep is a commercially available mixture of penicillin G and streptomycin, which is used in mammalian cell culture media to prevent bacterial contamination. Phenol Red Free Dulbecco's Modified Eagle Medium (DMEM) supplemented with 10% w/w charcoal-dextran treated fetal bovine serum (FBS) and 1% w/w pen-strep, with or without 10 ng/mL doxycycline is herein referred to as Treatment Medium. Following seeding of cells in the plates, the plates were spun at 300×g for 30 seconds, then equilibrated to room temperature for 30 minutes, and then deposited in a humidified tissue culture incubator maintained at 37° C. with 5% CO2.
(§4) At 24 hours after seeding of the cells, dilutions of test compound were prepared in DMSO and dissolved in Treatment Medium, to achieve a final DMSO concentration of 0.5% w/w, thereby providing the Test Compound Solution. A 25 μL aliquot of the Test Compound Solution was added to cells in the well plates. An equal volume of a solution containing DMSO and Treatment Medium was used as a negative control. Following treatment of cells with Test Compound Solution or said equal volume of a solution containing DMSO and Treatment Medium, the plates were spun at 300×g for 30 seconds, and then left in an incubator for 72 hours.
(§5) At the end of the treatment duration, cell viability was quantified with CellTiter-Glo 2.0 reagent (Promega Cat #G9243). For this purpose, plates were equilibrated to room temperature for 30 minutes, and then 25 μL of CellTiter-Glo 2.0 reagent was added to cells in the plate wells. Plates were then agitated on a shaker for two minutes at 500 rpm and subsequently incubated at room temperature for 10 minutes. Following incubation, the plates were spun at 3000×g for 30 seconds, then sealed with an optical adhesive cover, and luminescence readings were measured with an EnVision Plate Reader (Perkin Elmer).
(§6) Data was normalized using zero luminescence for baseline. A four-parameter non-linear regression curve fit was applied to dose-response data in GraphPad Prism data analysis software to determine the half-maximal growth inhibitory concentration (GI50) for each test compound.

[2] = tested on: T-Rex 293 cell line SC cells having increased expression of progesterone receptor isoform B protein due to exposure to doxycycline; assay: as above; conditions: progesterone receptor isoform B induced with 10 ng/mL doxycycline, 72 hours, CellTiter-Glo 2.0, Table 14 (Example 47)
Experimental: as §1, §2, §3, §4, §5, §6

[3] = tested on: 22RV1 cells overexpressing FL-AR (22RV1 Parental(FL-AR^hi)); assay: 22RV1 apoptosis assay (Caspase-Glo 3/7), cells overexpressing FL-AR; conditions: Caspase 3/7 Glo assay
Experimental: (§7) 22RV1 Parental and 22RV1/AR cells were seeded in 25 μL growth media in poly-d lysine coated black clear-bottom 384-well plates at 5000 cells/well with Phenol Red Free RPMI containing 10% charcoal stripped serum and 1% PenStrep. Following seeding, plates were spun at 300×g for 30 seconds, then equilibrated to room temperature for 30 minutes, and moved into the incubator. 24 hours after seeding, compounds were titrated in 100% DMSO and diluted in growth medium. 25 μL of the compound/medium mixture was added to cells, bringing the total volume in each well to 50 μL. DMSO was used as a negative control.
After treatment, plates were spun at 300×g for 30 seconds, then cultured at 37° C. with 5% CO2 for 24 or 48 hours in a humidified tissue culture incubator. After 24 or 48 hours of treatment, Caspase 3/7 activity was quantified with Caspase-Glo 3/7 reagent (Promega). Plates were equilibrated to room temperature for 30 minutes, then 25 μL of Caspase-Glo 3/7 reagent was added to cells, bringing the total volume in each well to 75 μL. After reagent was added, plates were spun at 300×g for 30 seconds then mixed on a shaker for two minutes at 500 rpm and then incubated in the dark at room temperature for one hour. Following incubation, plates were spun at 300×g for 30 seconds, sealed with an optical adhesive cover, and luminescence reads were measured with an EnVision Plate Reader. […]

[4] = tested on: LnCaP95 Parental cells; assay: Cellular growth inhibition assay for LnCaP95 Parental cells, CellTiter-Glo; conditions: CellTiterGlo assay, 6 days
Experimental: as §7, with “T47D LnCap95” for “22RV1”, “T47D LnCap95 AR-FL KO” for “22RV1/AR”, “2500” for “5000”, “pen strep.” for “PenStrep.”
After treatment, plates were spun at 300×g for 30 seconds, then cultured at 37° C. with 5% CO2 for 6 days in a humidified tissue culture incubator. On Day 6 of treatment, cell viability was quantified with CellTiter-Glo 2.0 reagent (Promega). Plates were equilibrated to room temperature for 30 minutes, then 25 μL of CellTiter-Glo 2.0 reagent was added to cells, bringing the total volume in each well to 75 μL. After reagent was added, plates were spun at 300×g for 30 seconds then mixed on a shaker for two minutes at 500 rpm and then incubated in dark at room temperature for 10 minutes. Following incubation, plates were spun at 300×g for 30 seconds, sealed with an optical adhesive cover, and luminescence readings were measured with an EnVision Plate Reader. […]

SMILES | GI50 [1] | further results
Cc1sc2c(c1C)C(c1ccc(Cl)cc1)=N[C@@H](CC(=O)NCCOCCOCCOCCOCCOC1CCN(c3ncc(C(=O)N[C@H]4C(C)(C)[C@H](Oc5ccc(C#N)c(Cl)c5)C4(C)C)cn3)CC1)c1nnc(C)n1-2 [Compound I-8] | < 500 nM | –
Cc1sc2c(c1C)C(c1ccc(Cl)cc1)=N[C@@H](CC(=O)NCCCCCOC1CCN(c3ncc(C(=O)N[C@H]4C(C)(C)[C@H](Oc5ccc(C#N)c(Cl)c5)C4(C)C)cn3)CC1)c1nnc(C)n1-2 [Compound I-22, N-((1r,3r)-3-(3-chloro-4-cyanophenoxy)-2,2,4,4-tetramethylcyclobutyl)-2-(4-((5-(2-((S)-4-(4-chlorophenyl)-2,3,9-trimethyl-6H-thieno[3,2-A][1,2,4]triazolo[4,3-a][1,4]diazepin-6-yl)acetamido)pentyl)oxy)piperidin-1-yl)pyrimidine-5-carboxamide] | – | GI50 [2]: > 3000 nM
Cc1sc2c(c1C)C(c1ccc(Cl)cc1)=N[C@@H](CC(=O)NCCOCCOCCOCCOCCN(C)c1ncc(C(=O)N[C@H]3C(C)(C)[C@H](Oc4ccc(C#N)c(Cl)c4)C3(C)C)cn1)c1nnc(C)n1-2 [Compound I-3, N-((1r,3r)-3-(3-chloro-4-cyanophenoxy)-2,2,4,4-tetramethylcyclobutyl)-2-((1-((S)-4-(4-chlorophenyl)-2,3,9-trimethyl-6H-thieno[3,2-f][1,2,4]triazolo[4,3-a][1,4]diazepin-6-yl)-2-oxo-6,9,12,15-tetraoxa-3-azaheptadecan-17-yl)(methyl)amino)pyrimidine-5-carboxamide] | < 500 nM | –
Cc1sc2c(c1C)C(c1ccc(Cl)cc1)=N[C@H](CC(=O)NCCOCCOCCOCCOC1CCN(c3ncc(C(=O)N[C@H]4C(C)(C)[C@H](Oc5ccc(C#N)c(Cl)c5)C4(C)C)cn3)CC1)c1nnc(C)n1-2 [Compound I-13] | < 500 nM | –
Cc1sc2c(c1C)C(c1ccc(OC3CC4(CCN(c5ncc(C(=O)N[C@H]6C(C)(C)[C@H](Oc7ccc(C#N)c(Cl)c7)C6(C)C)cn5)CC4)C3)cc1)=N[C@@H](Cc1ncco1)c1nnc(C)n1-2 [Compound I-49, N-[3-(3-chloro-4-cyano-phenoxy)-2,2,4,4-tetramethyl-cyclobutyl]-2-[2-[4-[(9S)-4,5,13-trimethyl-9-(oxazol-2-ylmethyl)-3-thia-1,8,11,12-tetrazatricyclo[8.3.0.02,6]trideca-2(6),4,7,10,12-pentaen-7-yl]phenoxy]-7-azaspiro[3.5]nonan-7-yl]pyrimidine-5-carboxamide] | < 500 nM | apoptosis in 22RV1 FL-AR^hi cells as compared to parental 22RV1 FL-AR^low cells [3]: highly apoptotic; pEC50 ([3]; Homo sapiens, 22RV1 cells overexpressing FL-AR (FL-AR^hi), 24 or 48 hours): 6.90; activity in parental LnCaP95 cells compared to AR knockout cells ([4]; parental vs LnCaP95 AR-FL KO cells): enhanced activity in parental LnCaP95 cells; GI50 ([4]; LNCaP-95, 144 h, parental LnCaP95 cells): 37 nM
Cc1sc2c(c1C)C(c1ccc(Cl)cc1)=N[C@H](CC(=O)NCCOCCOCCOCCOCCN(C)c1ncc(C(=O)N[C@H]3C(C)(C)[C@H](Oc4ccc(C#N)c(Cl)c4)C3(C)C)cn1)c1nnc(C)n1-2 [Compound I-19] | 500 to 1500 nM | –
Cc1sc2c(c1C)C(c1ccc(Cl)cc1)=N[C@@H](CC(=O)NCCOC1CCN(c3ncc(C(=O)N[C@H]4C(C)(C)[C@H](Oc5ccc(C#N)c(Cl)c5)C4(C)C)cn3)CC1)c1nnc(C)n1-2 [Compound I-6] | < 500 nM | –
Cc1sc2c(c1C)C(c1ccc(Cl)cc1)=N[C@@H](CC(=O)NCCOCCOCCOCCOC1CCN(c3ncc(C(=O)N[C@H]4C(C)(C)[C@H](Oc5ccc(C#N)c(Cl)c5)C4(C)C)cn3)CC1)c1nnc(C)n1-2 [Compound I-11] | < 500 nM | –
Cc1sc2c(c1C)C(c1ccc(Cl)cc1)=N[C@@H](CC(=O)NCCOCCOCCOCC1CCN(c3ncc(C(=O)N[C@H]4C(C)(C)[C@H](Oc5ccc(C#N)c(Cl)c5)C4(C)C)cn3)CC1)c1nnc(C)n1-2 [Compound I-17] | 500 to 1500 nM | –
Cc1sc2c(c1C)C(c1ccc(Cl)cc1)=N[C@H](CC(=O)NCCOCCOCCOCCOCCOC1CCN(c3ncc(C(=O)N[C@H]4C(C)(C)[C@H](Oc5ccc(C#N)c(Cl)c5)C4(C)C)cn3)CC1)c1nnc(C)n1-2 [Compound I-14] | < 500 nM | –
Cc1sc2c(c1C)C(c1ccc(Cl)cc1)=N[C@@H](CC(=O)NCCOCCOCCOCCOCCOCCOCCN(C)c1ncc(C(=O)N[C@H]3C(C)(C)[C@H](Oc4ccc(C#N)c(Cl)c4)C3(C)C)cn1)c1nnc(C)n1-2 [Compound I-4] | < 500 nM | –
